Laboratory results from US12679878B2, “CRF2 receptor agonists and their use in therapy” (SANOFI, priority 2020, dated 2026).
Read-outs that look alike come from different tables or passages of the source. Starred links: 1 amine or outer side, 2 acyl side, 3 side chain; linkers in the order of their positions; H or OH if unused. Non-standard residues stand in square brackets, D forms with d. Residues, ends and D or L forms follow the SMILES beside them. Groups on a side chain read outwards from the residue. *: point of attachment. C18 diacid = O=C(O)CCCCCCCCCCCCCCCCC(=O)*; γGlu = O=C(O)[C@H](CCC(=O)[*:2])N[*:1]; AEEA = NCCOCCOCC(=O)O; Aib = CC(C)(N)C(=O)O

Key:
[1] = Solubility in buffer systems by UPLC-UV (Example 13); assay type: physicochemical
Outline: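 The supernatant was diluted 1:10 and quantified by UPLC-UV peak area against a reference standard curve, correcting for sequence-based extinction coefficients.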

human CRF2α receptor = biological target: T1, human CRF2α receptor (Homo sapiens, UniProt Q13324); test: cAMP agonism at human CRF2 α receptor in TeloHEAC cells (Example 7); assay type: cell-based; conditions: cAMP HTRF, TeloHEAC cells stably expressing human CRF2 α
T1 construct: expressed in transfected cells; host or cells: TeloHEAC
T1 sequence (Q13324 1-411): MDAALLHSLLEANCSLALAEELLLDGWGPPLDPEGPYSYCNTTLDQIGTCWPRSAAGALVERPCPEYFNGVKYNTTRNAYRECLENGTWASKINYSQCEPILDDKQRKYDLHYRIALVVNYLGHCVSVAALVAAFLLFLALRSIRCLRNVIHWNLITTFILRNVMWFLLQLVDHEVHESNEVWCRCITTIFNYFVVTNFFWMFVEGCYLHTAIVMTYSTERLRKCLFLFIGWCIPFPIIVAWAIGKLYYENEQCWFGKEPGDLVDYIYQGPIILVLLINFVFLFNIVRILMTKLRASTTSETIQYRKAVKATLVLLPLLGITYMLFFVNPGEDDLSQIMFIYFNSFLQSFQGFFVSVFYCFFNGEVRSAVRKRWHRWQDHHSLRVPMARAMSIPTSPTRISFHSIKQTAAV
Outline: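 Thawed frozen stably transfected cells in HBSS/20 mM HEPES (0% or 0.1% HSA) plus 2 mM IBMX were exposed to compound at 2000 cells/well for 30 min at room temperature. Intracellular cAMP was read by HTRF (665/620 nm ratio) after 1 h lysis; EC50 was derived with 1000 nM urocortin 2 set as 100%.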

[2] = Physical stability, Thioflavin T fibrillation assay (Example 14); assay type: physicochemical; conditions: 3 mg/ml, 37° C. shaking
Outline: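 Compounds at 3 mg/ml final in buffer were stressed at 37° C by repeated cycles of 10 s shaking at 960 rpm and 50 s rest. ThT fluorescence was read every 20 minutes in eight replicates, with fluorescence increase and lag time indicating fibrillation tendency.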

rat CRF2R α receptor = test: cAMP agonism at rat CRF2R α receptor in A7R5 rat aortic smooth muscle cells (Example 8); assay type: cell-based; conditions: cAMP HTRF, A7R5 rat aortic smooth muscle cell line, 0% HSA
Outline: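 Thawed cryopreserved A7R5 cells in HBSS/20 mM HEPES (0 or 0.1% HSA) with 2 mM IBMX, 2000 cells/well, were exposed to compound for 30 min at room temperature. cAMP was read by HTRF (665/620 nm ratio) after 1 h with lysis reagents. Activity was normalised to 1000 nM urocortin 2 as 100%, and EC50 was taken as the concentration giving 50% of maximal activation.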

CRF1R receptor = biological target: T2, CRF1R receptor (Homo sapiens, UniProt P34998); test: cAMP activity at anti-target CRF1R, CRF1R-overexpression CHO cell line (Example 9); assay type: cell-based; conditions: CRF1R-overexpression CHO cell line; for EC50: 0% HSA; for Emax: read-out: Emax (%)
T2 construct: host or cells: CHO-K1 clone 2
T2 sequence (P34998 24-415): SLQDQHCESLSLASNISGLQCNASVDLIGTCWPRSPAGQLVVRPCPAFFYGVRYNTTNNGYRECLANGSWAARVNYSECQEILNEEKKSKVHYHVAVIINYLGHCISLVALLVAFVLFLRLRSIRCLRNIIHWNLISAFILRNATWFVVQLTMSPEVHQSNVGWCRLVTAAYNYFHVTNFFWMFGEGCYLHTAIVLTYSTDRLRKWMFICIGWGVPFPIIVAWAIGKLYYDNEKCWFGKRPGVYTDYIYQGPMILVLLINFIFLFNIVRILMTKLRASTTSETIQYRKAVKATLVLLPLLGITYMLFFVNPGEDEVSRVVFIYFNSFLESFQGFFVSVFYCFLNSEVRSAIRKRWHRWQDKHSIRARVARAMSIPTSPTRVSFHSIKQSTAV
Outline: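 cAMP accumulation was read by HTRF after 30 min at room temperature of compound treatment. Cells were cryopreserved CHO cells overexpressing CRF1R, plated at 2000/well in IBMX (2 mM)-containing HBSS/HEPES buffer with 0 or 0.1% HSA. Activity was normalized to 1000 nM UCN2 as 100%.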

[3] = Physical stability, dynamic light scattering assay (Example 15); assay type: physicochemical; conditions: Buffer B (100 mM acetate, pH 4.5, 2.7 mg/ml m-cresol)
Description: The physical stability of the compounds was also assessed using a dynamic light scattering assay.
In the present study, the physical stability of test compounds was assessed by determining the apparent hydrodynamic radius (Rh), the scattering intensity (I) and mass contribution (M) after synthesis (0 weeks) and after storage for 4 weeks at 40° C.
For each solution of test compound, the hydrodynamic radius Rh and the diffusion constant D (related via the Stokes-Einstein equation) were determined as an average over triplicates. Both parameters were determined at different compound concentrations (e.g., Rh1 and D1: 1 mg/ml and Rh5 and D5: 5 mg/ml, Rh10 and D10: 10 mg/mL) in the same buffer system. The difference of these parameters between low and high peptide concentration is a surrogate for the DLS interaction parameter kD. […] In addition, the hydrodynamic radius Rh and the corresponding Scattering Intensity (%) were determined as an average over duplicates. The target concentration was 300 μM. Therefore, solutions from solid samples were prepared in a buffer system with a concentration of 300 μM compound based on the previously determined % purity.
DLS measurements were performed on a DynaPro Plate Reader I (Wyatt Technology, Santa Barbara, CA, US) with an 837 nm laser light source at a scattering angle of 150°. The data were collected and processed with Dynamics V 7.8.1.3 or 7.8.2.18 software provided by Wyatt Technology.
Hydrodynamic radii were determined with non-negatively constrained least squares (NNLS) methods using DYNALS algorithms with regularization fit. […] Samples were tempered over 1 hour at +25° C. and visually inspected before analysis.
Samples were mixed with the aid of a pipet tip. Measurements were performed in 5 replicates. […] The plate was centrifuged for 2 minutes at 600 rcf. After removing the sealing, the samples were measured at +25° C.

[4] = pH 4.5, Solubility in Buffer B [mg/ml]
[5] = pH 7.4, Solubility in Buffer C [mg/ml]
[6] = 0% HSA, read-out: EC50 [nM], 0% HSA
[7] = Buffer A: 100 mM acetate buffer, pH 4.5
[8] = Buffer B: 100 mM acetate buffer, pH 4.5, 2.7 mg/ml m-cresol
[9] = 0.1% HSA, read-out: EC50 [nM], 0.1% HSA

| SMILES | solubility at 1 h [1, 4] [µg/mL] | solubility at 1 h [1, 5] [µg/mL] | EC50 (human CRF2α receptor; [6]) [nM] | Increase in FI (fluorescence intensity) [2, 7] | Lag time [2, 7] [h] | Increase in FI (fluorescence intensity) [2, 8] | Lag time [2, 8] [h] | EC50 (rat CRF2R α receptor) [nM] | EC50 (CRF1R receptor) [nM] | Emax (CRF1R receptor) [%] | Apparent Rh [nm] 0 weeks ([3]; 0 weeks) [nm] | Scattering Intensity (I) [%] 0 weeks ([3]; 0 weeks) [%] | Apparent Rh [nm] 4 weeks ([3]; 4 weeks at 40° C.) [nm] | Scattering Intensity (I) [%] 4 weeks ([3]; 4 weeks at 40° C.) [%] | EC50 (human CRF2α receptor; [9]) [nM] |
| --- | --- | --- | --- | --- | --- | --- | --- | --- | --- | --- | --- | --- | --- | --- | --- |
| CC[C@H](C)[C@H](N)C(=O)N[C@H](C(=O)N[C@@H](CC(C)C)C(=O)N[C@@H](CO)C(=O)N[C@@H](CC(C)C)C(=O)N[C@@H](CC(=O)O)C(=O)N[C@H](C(=O)N1CCC[C@H]1C(=O)N[C@H](C(=O)N[C@@H](CCCCN)C(=O)N[C@@H](CC(C)C)C(=O)N[C@@H](CCCCNC(=O)COCCOCCNC(=O)COCCOCCNC(=O)CC[C@H](NC(=O)CCCCCCCCCCCCCCCCC(=O)O)C(=O)O)C(=O)N[C@@H](CCC(N)=O)C(=O)N[C@H](C(=O)N[C@@H](CC(C)C)C(=O)N[C@@H](CC(C)C)C(=O)N[C@@H](CCCCN)C(=O)N[C@@H](CCC(N)=O)C(=O)N[C@@H](CCC(=O)O)C(=O)N[C@@H](CCCNC(=N)N)C(=O)N[C@@H](CCC(N)=O)C(=O)N[C@@H](CCCCN)C(=O)N[C@@H](CCCCN)C(=O)N[C@@H](CCC(N)=O)C(=O)N[C@@H](CCCNC(=N)N)C(=O)N[C@@H](CCC(N)=O)C(=O)N[C@@H](CCC(N)=O)C(=O)N[C@@H](C)C(=O)N[C@@H](CCC(=O)O)C(=O)N[C@H](C(=O)N[C@@H](CC(N)=O)C(=O)NC(C)(C)C(=O)N[C@@H](CCC(N)=O)C(=O)N[C@H](C(=O)N[C@@H](CC(C)C)C(=O)N[C@@H](C)C(=O)N[C@@H](CCC(N)=O)C(=O)N[C@H](C(N)=O)C(C)C)[C@@H](C)CC)[C@@H](C)O)[C@@H](C)CC)[C@@H](C)CC)C(C)C)C(C)C [compound 75] (H-IVLSLDVPIKLK([AEEA-AEEA-γGlu-C18 diacid])QILLKQERQKKQRQQAETN[Aib]QILAQV-NH2) | > 9000 | > 7900 | 0.48 | No | >45 | No | >45 | 1.71 | > 1000 | 2.7 |  |  |  |  |  |
| CC[C@H](C)[C@H](N)C(=O)N[C@H](C(=O)N[C@@H](CC(C)C)C(=O)N[C@@H](CO)C(=O)N[C@@H](CC(C)C)C(=O)N[C@@H](CC(=O)O)C(=O)N[C@@H](C(=O)N1CCC[C@H]1C(=O)N[C@H](C(=O)N[C@@H](CCCCN)C(=O)N[C@@H](CC(C)C)C(=O)N[C@@H](CCCCNC(=O)COCCOCCNC(=O)COCCOCCNC(=O)CC[C@H](NC(=O)CCCCCCCCCCCCCCCCC(=O)O)C(=O)O)C(=O)N[C@@H](CCC(N)=O)C(=O)N[C@H](C(=O)N[C@@H](CC(C)C)C(=O)N[C@@H](CC(C)C)C(=O)N[C@@H](CCC(=O)O)C(=O)N[C@@H](CCC(N)=O)C(=O)N[C@@H](C)C(=O)N[C@@H](CCCNC(=N)N)C(=O)N[C@@H](CCC(N)=O)C(=O)N[C@@H](CCCCN)C(=O)NC(C)(C)C(=O)N[C@@H](CCC(N)=O)C(=O)N[C@@H](CCCNC(=N)N)C(=O)N[C@@H](CCC(=O)O)C(=O)N[C@@H](CCC(N)=O)C(=O)N[C@@H](C)C(=O)N[C@@H](CCC(=O)O)C(=O)N[C@@H](CCCCN)C(=O)N[C@@H](CC(N)=O)C(=O)N[C@@H](CCCCN)C(=O)N[C@@H](CCCNC(=N)N)C(=O)N[C@H](C(=O)N[C@@H](CC(C)C)C(=O)N[C@@H](CCC(=O)O)C(=O)N[C@@H](CCCNC(=N)N)C(=O)N[C@H](C(N)=O)C(C)C)[C@@H](C)CC)[C@@H](C)CC)[C@@H](C)CC)C(C)C)C(C)C [compound 142] (H-IVLSLD[dV]PIKLK([AEEA-AEEA-γGlu-C18 diacid])QILLEQARQK[Aib]QREQAEKNKRILERV-NH2; N-terminus assumed) | > 8700 |  | 0.05 |  |  | No | >45 | 0.2 |  |  | 3.63 ± 0.14 | 100 ± 0 | 3.59 ± 0.04 | 100 ± 0 | 1.42 |
| CC[C@H](C)[C@H](NC(=O)[C@H](CCC(N)=O)NC(=O)[C@H](CCCCNC(=O)COCCOCCNC(=O)COCCOCCNC(=O)CC[C@H](NC(=O)CCCCCCCCCCCCCCCCC(=O)O)C(=O)O)NC(=O)[C@H](CC(C)C)NC(=O)[C@H](CCCCN)NC(=O)[C@@H](NC(=O)[C@@H]1CCCN1C(=O)[C@@H](NC(=O)[C@H](CC(=O)O)NC(=O)[C@H](CC(C)C)NC(=O)[C@H](CO)NC(=O)[C@H](CC(C)C)NC(=O)[C@@H](NC(=O)[C@@H](N)Cc1ccccc1)[C@@H](C)O)C(C)C)[C@@H](C)CC)C(=O)N[C@@H](CC(C)C)C(=O)N[C@@H](CC(C)C)C(=O)N[C@@H](CCCCN)C(=O)N[C@@H](CCC(N)=O)C(=O)N[C@@H](CCC(=O)O)C(=O)N[C@@H](CCCNC(=N)N)C(=O)N[C@@H](CCC(N)=O)C(=O)N[C@@H](CCCCN)C(=O)N[C@@H](CCCCN)C(=O)N[C@@H](CCC(N)=O)C(=O)N[C@@H](CCCNC(=N)N)C(=O)N[C@@H](CCC(N)=O)C(=O)N[C@@H](CCCCN)C(=O)N[C@@H](C)C(=O)N[C@@H](CCCCN)C(=O)N[C@@H](CCCCN)C(=O)N[C@@H](CC(N)=O)C(=O)N[C@@H](CCCCN)C(=O)N[C@@H](CCC(N)=O)C(=O)N[C@H](C(=O)N[C@@H](CC(C)C)C(=O)N[C@@H](CCC(=O)O)C(=O)N[C@@H](CCCNC(=N)N)C(=O)N[C@H](C(N)=O)C(C)C)[C@@H](C)CC [compound 146] (H-FTLSLDVPIKLK([AEEA-AEEA-γGlu-C18 diacid])QILLKQERQKKQRQKAKKNKQILERV-NH2; N-terminus assumed) |  | > 8800 | 0.11 | No | >45 | No | >45 | 0.22 | > 1000 | 1.03 |  |  |  |  | 4.36 |
